Measured values taken from publication PMC11738990, “A small-molecule TNIK inhibitor targets fibrosis in preclinical and clinical models” (Nature Biotechnology, 2024).
Values joined by “and” are separate entries in the source; they are usually repeats but may differ in a detail not shown here. Identical values can stand only once. Like-named read-outs stand apart in the source and are kept apart here.

Key:
[1] = system: primary lung fibroblasts from donors with IPF; experiment: FMT by α-SMA, high-content analysis; type: cell-based, human; settings: three donors with IPF; read-out: IC50, TGF-β-mediated α-SMA expression
Protocol: For the measurement of FMT by α-SMA, on the first day, human lung-derived primary lung fibroblast cells were seeded. After 2 d, the medium of the cells was refreshed. […] On the eighth day (72 h after triggering), cells were fixed with 4% formaldehyde, stained for α-SMA and with DAPI and then imaged and quantified via high-content analysis (HCA) (IN Cell Analyzer 2200, GE Healthcare).
Segmentation and quantification of α-SMA and FN1 immunoreactivity was carried out with an HCA algorithm, with density × area (D × A) output. Data normalization of raw α-SMA or FN1 (D × A) to percent inhibition values was performed on a plate-to-plate basis.
[…]
μp is the average α-SMA or FN1 value of the positive control (TGF-β1 + 1 μM SB525334). μn is the average α-SMA or FN1 value of the vehicle control (TGF-β1 + 0.1% DMSO). Xi is the compound α-SMA or FN1 value. IC50 values for all compounds (if calculable, based on the point of inflection) were calculated with GraphPad Prism using non-linear fit of log (inhibitor) versus response (four parameter).
DAPI fluorescence was applied for HCA-based quantification of the number of imaged cells on a plate-to-plate basis.
Percent remaining cells = (Xi/μn) × 100%
μn is the average number of nuclei of the vehicle control (TGF-β1 + 0.1% DMSO). Xi is the compound number of nuclei.

[2] = system: primary bronchial epithelial cells from donors with IPF; experiment: EMT by FN1, high-content analysis; type: cell-based, human; settings: three donors with IPF
Protocol: For the measurement of EMT by FN1, on the first day, human primary bronchial epithelial cells were seeded. After 2 d, the medium of the cells was refreshed. […] After 1 h, all cells were treated with 5 ng ml^−1 TGF-β1.
Percent inhibition = (100 − (μp − Xi)/(μp − Xn)) × 100

[3] = system: C57BL/6 mice; experiment: Bleomycin-induced lung fibrosis model, combination with pirfenidone; type: in vivo, mouse; settings: INS018_055 3mpk BID; 3 mg/kg
Protocol: Mice received bleomycin on day 1 at a dose of 0.66 mg per kg (equivalent to 1 U per kg), in a volume of 50 μl by intratracheal administration, or received saline (sham group). On day 7, dosing with the corresponding compounds was started. The vehicle group (group 1) was treated with 0.5% methylcellulose BID. […] On days 5 and 21, lung function measurement was performed. On day 28, all animals were killed, and blood and tissue samples were collected along with BALF.
Lung function was measured according to the HDB standard protocol. Expiratory time, relaxation time, peak expiratory flow and peak inspiratory flow were collected and used to calculate Penh data.
Lung sections were cut at a thickness of 4 μm, dried in an oven for 1 h and stained with M&T using our standard protocol. Briefly, sections were stained with Weigert’s iron hematoxylin working solution for 10 min, stained in Biebrich scarlet–acid fuchsin solution for 10 min, differentiated in phosphomolybdic–phosphotungstic acid solution for 5 min or until the collagen was not red, transferred to aniline blue solution, stained for 1 min and then dedifferentiated in 1% acetic acid solution. Next, sections were dehydrated and coverslipped for subsequent image analysis. For image analysis of collagen deposition, Masson’s trichrome-stained slides were scanned by using Aperio ScanScope Model CS2 (Leica) at ×200 magnification. Images were then opened with HALO. Using the pen tool, the whole left lung section was selected as an annotation layer. The area occupied by blue collagen fibers was measured using the pen tool. The percentage of fibrosis (positive areas) in the selected annotation was then calculated with the program. Fibrosis was expressed as a percentage per lung section.
Sections (4 μm thick) were placed on slides, and, after overnight drying, paraffin was removed with xylene. Next, sections were placed in a graded ethanol series and immersed in distilled water. After heat-induced citrate antigen (pH 6.0) unmasking, sections were immersed in 3% hydrogen peroxide solution for 5 min. […] Next, secondary antibodies conjugated to HRP were added. For image analysis of fibrosis, stained sections were used and scanned with the Aperio CS2 Scanner machine. Images were then opened with HALO. Using the pen tool, the whole left lung section was selected as an annotation layer. The bronchus was excluded in the annotation layer. The area occupied by collagen fibers was measured using the ‘Area Quantification v2.1.3’ module. The percentage of positive areas in the selected annotation was then calculated using the program.

[4] = system: healthy subjects
[5] = system: mice; settings: male mice, 180 mg/kg daily; ref Insilico Medicine, 2021; cited from earlier work

CC(C)n1cnc(-c2ccc(F)cc2)c1-c1nc(C(=O)Nc2ccc(N3CCN(C)CC3)cc2)c[nH]1 [INS018_055, 2-[4-(4-fluorophenyl)-1-(prop-2-yl)imidazol-5-yl]-N-[4-(4-methylhexahydropyrazin-1-yl)phenyl]-1H-imidazole-4-carboxamide]
IC50 [1]: 50 nM and 79 nM and 63 nM | IC50 [2]: 250 nM and 320 nM and 400 nM | Modified Ashcroft Score [3]: 5.75 and 4.5 and 3 | Any TEAE ([4]; MAD BID 7 d 30 mg N=6): 66.7% | Any TEAE ([4]; MAD BID 7 d 60 mg N=6): 100.0% | Any TEAE ([4]; MAD BID 7 d 90 mg N=6): 100.0% | Abdominal distension ([4]; MAD any dose N=18): 5.6% | Anaemia ([4]; MAD any dose N=18): 11.1% | Any TEAE ([4]; MAD any dose N=18): 88.9% | Arthralgia ([4]; MAD any dose N=18): 5.6% | Basophil count increased ([4]; MAD any dose N=18): 5.6% | Blood and lymphatic system disorders ([4]; MAD any dose N=18): 11.1% | Blood bilirubin increased ([4]; MAD any dose N=18): 5.6% | Blood creatine phosphokinase increased ([4]; MAD any dose N=18): 5.6% | Blood fibrinogen decreased ([4]; MAD any dose N=18): 11.1% | Blood pressure decreased ([4]; MAD any dose N=18): 5.6% | Blood pressure increased ([4]; MAD any dose N=18): 5.6% | Cardiac disorders ([4]; MAD any dose N=18): 5.6% | Dizziness ([4]; MAD any dose N=18): 22.2% | Electrolyte imbalance ([4]; MAD any dose N=18): 5.6% | Epistaxis ([4]; MAD any dose N=18): 11.1% | Fecal occult positive ([4]; MAD any dose N=18): 55.6% | Gastrointestinal disorders ([4]; MAD any dose N=18): 22.2% | Haematuria ([4]; MAD any dose N=18): 16.7% | Headache ([4]; MAD any dose N=18): 16.7% | Hepatic enzyme increased ([4]; MAD any dose N=18): 5.6% | Hyperphosphataemia ([4]; MAD any dose N=18): 5.6% | Hypertriglyceridaemia ([4]; MAD any dose N=18): 50.0% | Hyponatraemia ([4]; MAD any dose N=18): 5.6% | Infections and infestations ([4]; MAD any dose N=18): 5.6% | Influenza like illness ([4]; MAD any dose N=18): 27.8% | Investigations ([4]; MAD any dose N=18): 77.8% | Limb discomfort ([4]; MAD any dose N=18): 0.0% | Musculoskeletal and connective tissue disorders ([4]; MAD any dose N=18): 33.3% | Nasal obstruction ([4]; MAD any dose N=18): 5.6% | Nausea ([4]; MAD any dose N=18): 5.6% | Nervous system disorders ([4]; MAD any dose N=18): 38.9% | Pain in extremity ([4]; MAD any dose N=18): 27.8% | Pruritus ([4]; MAD any dose N=18): 5.6% | Pyrexia ([4]; MAD any dose N=18): 11.1% | Rash ([4]; MAD any dose N=18): 16.7% | Renal and urinary disorders ([4]; MAD any dose N=18): 16.7% | Respiratory, thoracic and mediastinal disorders ([4]; MAD any dose N=18): 16.7% | Sinus bradycardia ([4]; MAD any dose N=18): 5.6% | Skin and subcutaneous tissue disorders ([4]; MAD any dose N=18): 22.2% | Total bile acids increased ([4]; MAD any dose N=18): 5.6% | Vomiting ([4]; MAD any dose N=18): 5.6% | White blood cells urine positive ([4]; MAD any dose N=18): 11.1% | Any TEAE ([4]; SAD 30 mg N=6): 83.3% | Any TEAE ([4]; SAD 60 mg N=6): 33.3% | Any TEAE ([4]; SAD 120 mg N=6): 50.0% | Any TEAE ([4]; SAD any dose N=18): 55.6% | Blood glucose increased ([4]; SAD any dose N=18): 0.0% | Blood uric acid increased ([4]; SAD any dose N=18): 5.6% | Body temperature increased ([4]; SAD any dose N=18): 5.6% | Cardiac disorders ([4]; SAD any dose N=18): 11.1% | Fecal occult positive ([4]; SAD any dose N=18): 27.8% | Gastrointestinal disorders ([4]; SAD any dose N=18): 5.6% | Headache ([4]; SAD any dose N=18): 5.6% | Hypertriglyceridaemia ([4]; SAD any dose N=18): 27.8% | Hypotension ([4]; SAD any dose N=18): 5.6% | Investigations ([4]; SAD any dose N=18): 33.3% | Nervous system disorders ([4]; SAD any dose N=18): 5.6% | Sinus bradycardia ([4]; SAD any dose N=18): 11.1% | Vascular disorders ([4]; SAD any dose N=18): 5.6% | White blood cells urine positive ([4]; SAD any dose N=18): 0.0% | Noninfective gingivitis ([4]; in vivo): 5.6% | Upper respiratory tract infection ([4]; in vivo): 5.6% | reduction of erythrocyte count [5]: 19.8%
